Consider one compound from paper PMC10176470, “Engaging a Non-catalytic Cysteine Residue Drives Potent and Selective Inhibition of Caspase-6” (Journal of the American Chemical Society, 2023).

Common to all, as to assay type: cell-based
Experiment [1] has as its target T1, proteins of HEK293T cells transiently overexpressing caspase-6 (Homo sapiens, UniProt Q13642).
T1 sequence (Q13642 1-323): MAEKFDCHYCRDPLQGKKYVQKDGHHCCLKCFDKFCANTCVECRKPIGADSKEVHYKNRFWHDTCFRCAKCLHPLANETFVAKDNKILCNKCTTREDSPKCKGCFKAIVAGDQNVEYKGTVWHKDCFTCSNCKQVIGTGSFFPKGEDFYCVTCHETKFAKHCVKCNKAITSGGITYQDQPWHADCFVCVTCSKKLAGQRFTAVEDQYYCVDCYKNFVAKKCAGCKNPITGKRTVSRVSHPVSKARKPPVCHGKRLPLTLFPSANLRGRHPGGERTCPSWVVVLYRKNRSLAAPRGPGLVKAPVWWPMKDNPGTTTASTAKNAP

Experiment [2] has as its target proteins of HEK293T cells transiently overexpressing caspase-6 (Homo sapiens, UniProt P21964). To be noted: Probe; protein COMT P21964.
Experiment [3] addresses T2, proteins of HEK293T cells transiently overexpressing caspase-6 (Homo sapiens, UniProt P30519).
T2 sequence (P30519 1-316): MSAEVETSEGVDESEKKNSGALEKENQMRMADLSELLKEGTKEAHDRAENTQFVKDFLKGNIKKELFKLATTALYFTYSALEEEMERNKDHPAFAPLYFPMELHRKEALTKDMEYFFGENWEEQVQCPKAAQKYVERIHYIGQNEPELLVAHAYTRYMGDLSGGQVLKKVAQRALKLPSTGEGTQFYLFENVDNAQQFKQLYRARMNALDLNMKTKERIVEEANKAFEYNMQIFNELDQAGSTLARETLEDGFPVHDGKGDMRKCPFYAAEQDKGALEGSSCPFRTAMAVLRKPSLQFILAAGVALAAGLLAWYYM
To be noted: protein HMOX2 (P30519).

For experiment [4], the target named is proteins of HEK293T cells transiently overexpressing caspase-6 (Homo sapiens, UniProt Q12905). The settings on record: exp_ref Probe; protein ILF2 (Q12905); analysis C6.
Experiment [5] addresses proteins of HEK293T cells transiently overexpressing caspase-6 (Homo sapiens, UniProt Q99729). To be noted: Probe; protein HNRNPAB Q99729.
Experiment [6] concerns the target proteins of HEK293T cells transiently overexpressing caspase-6 (Homo sapiens, UniProt P36871). To be noted: protein PGM1 (P36871); exp_ref Probe; analysis C6.
Experiment [7] deals with proteins of HEK293T cells transiently overexpressing caspase-6 (Homo sapiens, UniProt Q13148). To be noted: protein TARDBP (Q13148); exp_ref Probe; analysis C6.
Experiment [8] concerns the target proteins of HEK293T cells transiently overexpressing caspase-6 (Homo sapiens, UniProt P63241). To be noted: exp_ref Probe; protein EIF5A (P63241); analysis C6.
Experiment [9] concerns the target proteins of HEK293T cells transiently overexpressing caspase-6 (Homo sapiens, UniProt Q14444). The settings on record: exp_ref Probe; protein CAPRIN1 (Q14444); analysis C6.
In experiment [10] the target is T3, proteins of HEK293T cells transiently overexpressing caspase-6 (Homo sapiens, UniProt Q8WUM4).
T3 sequence (Q8WUM4 1-868): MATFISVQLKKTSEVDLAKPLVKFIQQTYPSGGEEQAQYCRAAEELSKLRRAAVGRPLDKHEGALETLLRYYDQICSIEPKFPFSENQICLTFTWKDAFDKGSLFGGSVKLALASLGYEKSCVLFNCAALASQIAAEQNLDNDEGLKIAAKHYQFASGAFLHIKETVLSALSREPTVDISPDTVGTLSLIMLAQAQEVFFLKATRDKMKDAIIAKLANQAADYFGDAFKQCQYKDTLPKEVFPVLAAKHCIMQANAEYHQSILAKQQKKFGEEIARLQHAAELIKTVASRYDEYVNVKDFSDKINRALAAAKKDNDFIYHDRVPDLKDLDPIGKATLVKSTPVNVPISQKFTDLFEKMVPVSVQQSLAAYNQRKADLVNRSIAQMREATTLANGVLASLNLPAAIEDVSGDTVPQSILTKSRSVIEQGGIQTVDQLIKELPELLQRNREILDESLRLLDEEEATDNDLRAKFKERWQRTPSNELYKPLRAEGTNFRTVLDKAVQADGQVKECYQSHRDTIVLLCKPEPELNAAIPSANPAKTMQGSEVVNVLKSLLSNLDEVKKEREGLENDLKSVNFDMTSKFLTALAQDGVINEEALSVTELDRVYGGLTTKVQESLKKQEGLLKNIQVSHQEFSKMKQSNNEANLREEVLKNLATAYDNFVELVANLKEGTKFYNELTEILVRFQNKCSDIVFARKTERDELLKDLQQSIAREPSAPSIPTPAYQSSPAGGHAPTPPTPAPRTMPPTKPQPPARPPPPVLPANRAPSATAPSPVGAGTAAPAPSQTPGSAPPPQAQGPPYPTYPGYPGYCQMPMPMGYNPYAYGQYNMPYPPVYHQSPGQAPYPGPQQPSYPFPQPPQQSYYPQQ
The settings on record: protein PDCD6IP (Q8WUM4); exp_ref Probe; analysis C6.

The target of experiment [11] is proteins of HEK293T cells transiently overexpressing caspase-6 (Homo sapiens, UniProt P39687). The settings on record: exp_ref Probe; protein ANP32A (P39687); analysis C6.
Experiment [12] addresses proteins of HEK293T cells transiently overexpressing caspase-6 (Homo sapiens, UniProt Q99460). To be noted: protein PSMD1 (Q99460); exp_ref Probe; analysis C6.
For experiment [13], the target named is proteins of HEK293T cells transiently overexpressing caspase-6 (Homo sapiens, UniProt O15355). To be noted: exp_ref Probe; protein PPM1G (O15355); analysis C6.

Like-named read-outs stand apart in the source and are kept apart here.

Sequence of proteins of HEK293T cells transiently overexpressing caspase-6 (Homo sapiens, UniProt Q99729) (Q99729 whole entry): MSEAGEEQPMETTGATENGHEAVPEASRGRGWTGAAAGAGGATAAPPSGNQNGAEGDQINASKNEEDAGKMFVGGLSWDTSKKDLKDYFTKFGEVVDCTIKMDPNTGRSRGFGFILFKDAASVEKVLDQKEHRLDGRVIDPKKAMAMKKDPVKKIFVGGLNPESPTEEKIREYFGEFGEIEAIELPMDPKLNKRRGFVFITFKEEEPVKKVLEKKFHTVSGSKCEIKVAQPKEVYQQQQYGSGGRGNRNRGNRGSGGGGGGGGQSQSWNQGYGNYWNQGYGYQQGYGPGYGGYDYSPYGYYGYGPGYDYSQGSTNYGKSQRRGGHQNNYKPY
Sequence of proteins of HEK293T cells transiently overexpressing caspase-6 (Homo sapiens, UniProt Q13148) (Q13148 whole entry): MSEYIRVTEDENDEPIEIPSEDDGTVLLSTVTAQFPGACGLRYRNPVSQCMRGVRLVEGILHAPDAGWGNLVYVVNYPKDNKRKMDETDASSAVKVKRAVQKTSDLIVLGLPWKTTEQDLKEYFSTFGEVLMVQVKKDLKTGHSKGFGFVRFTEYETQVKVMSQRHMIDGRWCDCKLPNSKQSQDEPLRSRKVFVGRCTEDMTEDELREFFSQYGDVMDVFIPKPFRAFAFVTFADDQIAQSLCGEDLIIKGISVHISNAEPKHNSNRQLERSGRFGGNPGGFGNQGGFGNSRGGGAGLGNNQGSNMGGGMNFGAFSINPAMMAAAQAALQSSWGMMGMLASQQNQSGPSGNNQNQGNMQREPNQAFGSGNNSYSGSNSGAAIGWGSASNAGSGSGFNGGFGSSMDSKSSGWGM
Sequence of proteins of HEK293T cells transiently overexpressing caspase-6 (Homo sapiens, UniProt P21964) (P21964 whole entry): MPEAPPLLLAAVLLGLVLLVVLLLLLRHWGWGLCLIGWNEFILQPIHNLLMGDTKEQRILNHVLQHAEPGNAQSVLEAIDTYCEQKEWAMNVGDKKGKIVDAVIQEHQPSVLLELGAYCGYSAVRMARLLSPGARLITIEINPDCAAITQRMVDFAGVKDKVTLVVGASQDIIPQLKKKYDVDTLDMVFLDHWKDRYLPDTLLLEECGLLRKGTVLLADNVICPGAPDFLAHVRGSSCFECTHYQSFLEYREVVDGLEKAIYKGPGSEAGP
Sequence of proteins of HEK293T cells transiently overexpressing caspase-6 (Homo sapiens, UniProt P36871) (P36871 whole entry): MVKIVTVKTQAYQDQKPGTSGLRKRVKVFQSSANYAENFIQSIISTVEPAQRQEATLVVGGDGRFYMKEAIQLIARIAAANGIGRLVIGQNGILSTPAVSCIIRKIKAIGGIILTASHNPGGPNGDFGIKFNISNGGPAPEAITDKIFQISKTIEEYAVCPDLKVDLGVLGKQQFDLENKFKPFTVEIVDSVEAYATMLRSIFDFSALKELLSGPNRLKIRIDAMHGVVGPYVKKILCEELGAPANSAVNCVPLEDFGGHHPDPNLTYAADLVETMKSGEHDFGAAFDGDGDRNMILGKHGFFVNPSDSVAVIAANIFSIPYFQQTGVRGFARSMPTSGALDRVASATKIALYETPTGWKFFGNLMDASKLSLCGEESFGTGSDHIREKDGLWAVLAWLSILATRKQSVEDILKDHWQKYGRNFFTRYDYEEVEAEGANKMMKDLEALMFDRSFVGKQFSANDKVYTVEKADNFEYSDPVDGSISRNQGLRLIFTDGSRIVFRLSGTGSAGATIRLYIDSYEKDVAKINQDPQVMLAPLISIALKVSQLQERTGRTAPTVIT
Sequence of proteins of HEK293T cells transiently overexpressing caspase-6 (Homo sapiens, UniProt Q14444) (Q14444 whole entry): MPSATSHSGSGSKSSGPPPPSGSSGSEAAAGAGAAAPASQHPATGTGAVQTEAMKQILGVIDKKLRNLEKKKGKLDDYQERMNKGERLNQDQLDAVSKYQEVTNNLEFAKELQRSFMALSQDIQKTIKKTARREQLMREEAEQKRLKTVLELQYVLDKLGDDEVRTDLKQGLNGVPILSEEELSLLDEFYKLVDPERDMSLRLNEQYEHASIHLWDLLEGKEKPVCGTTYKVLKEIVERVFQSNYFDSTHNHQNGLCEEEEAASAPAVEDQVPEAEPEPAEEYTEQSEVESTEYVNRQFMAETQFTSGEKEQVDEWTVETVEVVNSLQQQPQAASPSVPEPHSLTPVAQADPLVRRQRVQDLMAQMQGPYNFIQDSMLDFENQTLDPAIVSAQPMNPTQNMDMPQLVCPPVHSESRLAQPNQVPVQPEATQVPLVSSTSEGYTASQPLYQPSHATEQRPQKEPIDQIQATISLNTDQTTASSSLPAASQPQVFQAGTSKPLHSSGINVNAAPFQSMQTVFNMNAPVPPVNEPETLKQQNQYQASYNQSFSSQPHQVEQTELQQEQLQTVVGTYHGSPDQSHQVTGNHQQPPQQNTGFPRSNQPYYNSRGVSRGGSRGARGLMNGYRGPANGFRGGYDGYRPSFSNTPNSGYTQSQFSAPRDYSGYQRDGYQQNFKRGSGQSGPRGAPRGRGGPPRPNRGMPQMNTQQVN
Sequence of proteins of HEK293T cells transiently overexpressing caspase-6 (Homo sapiens, UniProt O15355) (O15355 whole entry): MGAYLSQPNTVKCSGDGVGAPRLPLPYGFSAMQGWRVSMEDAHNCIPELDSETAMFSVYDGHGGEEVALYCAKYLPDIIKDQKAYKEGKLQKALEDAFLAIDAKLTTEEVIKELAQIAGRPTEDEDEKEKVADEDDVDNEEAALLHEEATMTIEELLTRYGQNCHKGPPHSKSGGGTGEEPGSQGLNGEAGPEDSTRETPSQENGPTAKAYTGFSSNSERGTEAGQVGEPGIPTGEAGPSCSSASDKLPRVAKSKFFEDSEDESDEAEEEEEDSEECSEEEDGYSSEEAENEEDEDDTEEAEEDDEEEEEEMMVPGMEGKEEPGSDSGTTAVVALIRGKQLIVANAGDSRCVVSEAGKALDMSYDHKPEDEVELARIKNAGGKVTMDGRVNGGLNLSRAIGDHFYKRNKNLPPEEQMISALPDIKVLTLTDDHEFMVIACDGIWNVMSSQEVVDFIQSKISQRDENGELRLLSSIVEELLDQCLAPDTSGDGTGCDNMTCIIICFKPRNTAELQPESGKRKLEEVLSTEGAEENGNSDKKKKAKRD
Sequence of proteins of HEK293T cells transiently overexpressing caspase-6 (Homo sapiens, UniProt Q99460) (Q99460 whole entry): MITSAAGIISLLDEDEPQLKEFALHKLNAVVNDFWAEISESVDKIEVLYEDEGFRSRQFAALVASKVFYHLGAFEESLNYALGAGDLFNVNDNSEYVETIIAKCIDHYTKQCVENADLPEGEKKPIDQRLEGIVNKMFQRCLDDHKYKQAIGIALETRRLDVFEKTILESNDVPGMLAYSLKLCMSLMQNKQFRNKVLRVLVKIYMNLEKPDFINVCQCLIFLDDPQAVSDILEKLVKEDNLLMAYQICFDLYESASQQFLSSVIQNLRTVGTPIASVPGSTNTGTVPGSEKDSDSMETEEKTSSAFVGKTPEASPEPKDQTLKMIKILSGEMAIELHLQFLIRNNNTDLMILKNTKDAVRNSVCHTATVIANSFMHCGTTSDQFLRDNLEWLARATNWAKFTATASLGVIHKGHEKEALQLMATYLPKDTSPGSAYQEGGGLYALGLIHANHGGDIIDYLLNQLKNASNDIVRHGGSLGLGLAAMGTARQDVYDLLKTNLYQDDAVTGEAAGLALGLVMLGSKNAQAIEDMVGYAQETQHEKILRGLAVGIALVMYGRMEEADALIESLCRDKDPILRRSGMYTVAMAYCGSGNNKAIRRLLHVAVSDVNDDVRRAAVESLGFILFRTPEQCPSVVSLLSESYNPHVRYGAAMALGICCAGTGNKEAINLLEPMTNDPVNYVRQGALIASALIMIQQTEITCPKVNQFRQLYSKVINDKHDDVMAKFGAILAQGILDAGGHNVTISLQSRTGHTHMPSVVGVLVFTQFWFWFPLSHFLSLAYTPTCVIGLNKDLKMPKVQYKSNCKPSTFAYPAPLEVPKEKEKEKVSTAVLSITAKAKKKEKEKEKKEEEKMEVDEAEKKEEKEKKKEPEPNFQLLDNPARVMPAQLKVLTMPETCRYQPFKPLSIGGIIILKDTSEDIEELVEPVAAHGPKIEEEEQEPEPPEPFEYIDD
Sequence of proteins of HEK293T cells transiently overexpressing caspase-6 (Homo sapiens, UniProt Q12905) (Q12905 whole entry): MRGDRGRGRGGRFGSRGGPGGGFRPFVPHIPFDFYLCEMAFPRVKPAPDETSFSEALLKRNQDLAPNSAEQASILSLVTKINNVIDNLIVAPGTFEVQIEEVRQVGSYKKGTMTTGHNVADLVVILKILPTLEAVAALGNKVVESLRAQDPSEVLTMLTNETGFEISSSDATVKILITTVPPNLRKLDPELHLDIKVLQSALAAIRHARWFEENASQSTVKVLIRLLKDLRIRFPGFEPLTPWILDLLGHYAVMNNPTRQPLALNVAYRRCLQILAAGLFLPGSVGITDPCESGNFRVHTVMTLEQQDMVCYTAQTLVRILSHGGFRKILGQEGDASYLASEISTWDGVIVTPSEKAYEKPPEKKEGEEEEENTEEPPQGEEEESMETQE
Sequence of proteins of HEK293T cells transiently overexpressing caspase-6 (Homo sapiens, UniProt P39687) (P39687 whole entry): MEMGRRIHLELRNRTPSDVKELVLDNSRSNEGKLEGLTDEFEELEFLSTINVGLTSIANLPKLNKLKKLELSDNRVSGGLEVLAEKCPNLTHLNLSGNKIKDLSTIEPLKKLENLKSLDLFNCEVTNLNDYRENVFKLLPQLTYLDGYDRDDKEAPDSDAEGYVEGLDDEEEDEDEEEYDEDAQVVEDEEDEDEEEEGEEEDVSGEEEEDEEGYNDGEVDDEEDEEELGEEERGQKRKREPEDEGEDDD
Sequence of proteins of HEK293T cells transiently overexpressing caspase-6 (Homo sapiens, UniProt P63241) (P63241 whole entry): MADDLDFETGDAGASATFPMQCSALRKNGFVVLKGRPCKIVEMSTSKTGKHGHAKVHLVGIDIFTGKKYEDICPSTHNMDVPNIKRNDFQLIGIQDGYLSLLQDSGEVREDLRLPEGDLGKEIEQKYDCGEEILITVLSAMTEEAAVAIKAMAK

Regarding `C#CCOc1ccc([C@@H]2C[C@@H](C(=O)Nc3ccc(OC(F)(F)F)cc3)CN(S(=O)(=O)C=C)C2)cc1` (relative stereo) [13-t], the enrich.exp.med in experiment [1] (Probe, protein FHL1 Q13642) is reported as -0.95; in experiment [2] it was -3.436; in [3] (exp_ref Probe, analysis C6), 2.255; in experiment [4], 0.9081; in experiment [5], -0.4603; in experiment [6] it was 1.9053. The enrich.exp.med is on record as 1.294 in experiment [7]; -0.3746 in experiment [8]; 0.06778 in [9]; 1.9 in experiment [10]; 0.2226 in experiment [11]; 1.73 in [12]. This compound showed an enrich.exp.med in experiment [13] of -0.08092. Besides, the enrich.exp.med.lin in experiment [1] (protein FHL1 (Q13642)) came to 0.5176; in experiment [3], 4.772; in experiment [3] (Expt Probe, analysis C6), 4.772. Further, the enrich.exp.med.log2 in experiment [1] (protein FHL1 (Q13642)) is reported as -0.95; in experiment [3], 2.255; in experiment [3] (Expt Probe, analysis C6) it was 2.255.
